In the supplement of paper PMC12137928 one finds IC50 cell viability data, which are given here for 41 compounds.

The test has as its system HCT116. The note with it: 72 h. In outline: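 Each well of the 1536-well plates received 250 HCT116 cells, which attached over 5 h. Luminescence was measured with CellTiter-Glo, scaled with vehicle as 0% and positive control as -100%, and pattern-corrected. A four-parameter Hill fit yielded IC50 and maximal efficacy.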

SMILES strings stand for the structures. Where a name gives a salt, the structure may show the parent alone.

As to `CCCC1C(=O)N2C(N(C)C)=Nc3ccc(C)cc3N2C1=O` (configuration not stated) [Azapropazone], the IC50 cell viability runs as follows: (ICRF193 0 nM) greater than 45.8 µM; (ICRF193 200 nM) greater than 45.8 µM.

For `Cc1ccc(S(=O)(=O)NC(=O)NN2CCCCCC2)cc1` [Tolazamide], the IC50 cell viability reads like this: (ICRF193 0 nM) greater than 45.8 µM; (ICRF193 200 nM) greater than 45.8 µM.

`CC(O)(CS(=O)(=O)c1ccc(F)cc1)C(=O)Nc1ccc(C#N)c(C(F)(F)F)c1` (configuration not stated) [BICALUTAMIDE]: the IC50 cell viability runs as follows: (ICRF193 0 nM) greater than 45.8 µM; (ICRF193 200 nM) greater than 45.8 µM.

As for `CC(=O)OCC(=O)[C@@]1(OC(C)=O)[C@@H](C)C[C@H]2[C@@H]3C[C@H](F)C4=CC(=O)C=C[C@]4(C)[C@@]3(F)[C@@H](O)C[C@@]21C` [Diflorasone diacetate], the IC50 cell viability was greater than 45.8 µM (ICRF193 0 nM) and greater than 45.8 µM (ICRF193 200 nM).

On to `CCCCOCCOCCOCc1cc2c(cc1CCC)OCO2` [Piperonyl butoxide], for which the IC50 cell viability (ICRF193 0 nM) was greater than 45.8 µM and the IC50 cell viability (ICRF193 200 nM) is greater than 45.8 µM.

In the case of `CN1CCN(CC(=O)N2c3ccccc3C(=O)Nc3cccnc32)CC1` [Pirenzepine], the IC50 cell viability by setting is: (ICRF193 0 nM) greater than 45.8 µM; (ICRF193 200 nM) greater than 45.8 µM.

Turning to `CC(=O)Oc1cccc(O)c1` [Resorcinol monoacetate], the IC50 cell viability is greater than 45.8 µM (ICRF193 0 nM) and greater than 45.8 µM (ICRF193 200 nM).

Regarding `CCC(CC)[C@H](NC(C)=O)[C@@H]1[C@H](O)[C@@H](C(=O)O)C[C@H]1NC(=N)N` [Peramivir], the IC50 cell viability by setting is: (ICRF193 0 nM) greater than 45.8 µM; (ICRF193 200 nM) greater than 45.8 µM.

For `c1cc(CN2CCCNCCNCCCNCC2)ccc1CN1CCCNCCNCCCNCC1` [Plerixafor hydrochloride], the IC50 cell viability is greater than 45.8 µM (ICRF193 0 nM) and greater than 45.8 µM (ICRF193 200 nM).

In the case of `NS(=O)(=O)c1cc2c(cc1Cl)NC(C1CC3C=CC1C3)NS2(=O)=O` (configuration not stated) [Cyclothiazide], the IC50 cell viability is greater than 45.8 µM (ICRF193 0 nM) and greater than 45.8 µM (ICRF193 200 nM).

Take `CC(=O)OC(C)OC(=O)C(C)c1ccc(-c2ccccc2)c(F)c1` (configuration not stated) [Flurbiprofen axetil]: the IC50 cell viability (ICRF193 0 nM) was greater than 45.8 µM and the IC50 cell viability (ICRF193 200 nM) was greater than 45.8 µM.

As for `Cc1cc2nc3c(=O)[nH]c(=O)nc-3n(CC(O)C(O)C(O)COP(=O)(O)O)c2cc1C` (configuration not stated) [RIBOFLAVIN 5-PHOSPHATE SODIUM], the IC50 cell viability was greater than 45.8 µM (ICRF193 0 nM) and greater than 45.8 µM (ICRF193 200 nM).

For the compound `Nc1ccn([C@@H]2O[C@H](CO)[C@@H](O)[C@H]2O)c(=O)n1` [CYTIDINE], the IC50 cell viability (ICRF193 0 nM) was greater than 45.8 µM and the IC50 cell viability (ICRF193 200 nM) was greater than 45.8 µM.

As to `CC(C)C[C@@H](N)C(=O)O` [D-Leucine], the IC50 cell viability was greater than 45.8 µM (ICRF193 0 nM) and greater than 45.8 µM (ICRF193 200 nM).

Turning to `CC(=O)Nc1ccc(O)cc1` [Acetaminophen], the IC50 cell viability is greater than 45.8 µM (ICRF193 0 nM) and greater than 45.8 µM (ICRF193 200 nM).

On to `CC(=O)O[C@H]1CC[C@@]2(C)C(=CC[C@H]3[C@@H]4CC[C@H](C(C)=O)[C@@]4(C)CC[C@@H]32)C1` [Pregnenolone acetate], for which the IC50 cell viability (ICRF193 0 nM) was greater than 45.8 µM and the IC50 cell viability (ICRF193 200 nM) was greater than 45.8 µM.

For the compound `CN1CCC[C@@H]1c1cccnc1` [D-Nicotine], the IC50 cell viability runs as follows: (ICRF193 0 nM) greater than 45.8 µM; (ICRF193 200 nM) greater than 45.8 µM.

For the compound `CN(CC(=O)N1CCOCC1)Cc1c(Cl)cccc1NC(=O)c1ccccc1` [Fominoben hydrochloride], the IC50 cell viability (ICRF193 0 nM) was greater than 45.8 µM and the IC50 cell viability (ICRF193 200 nM) is greater than 45.8 µM.

Regarding `O=C(O)CCn1c2c(c3ccccc31)C[C@H](NS(=O)(=O)c1ccc(F)cc1)CC2` [Ramatroban], the IC50 cell viability runs as follows: (ICRF193 0 nM) greater than 45.8 µM; (ICRF193 200 nM) greater than 45.8 µM.

For the compound `CC(=O)[C@@]1(O)CC[C@H]2[C@@H]3C[C@H](C)C4=CC(=O)C=C[C@]4(C)[C@@]3(F)[C@@H](O)C[C@@]21C` [Fluorometholone], the IC50 cell viability reads like this: (ICRF193 0 nM) greater than 45.8 µM; (ICRF193 200 nM) greater than 45.8 µM.

Consider `CC(N)Cc1ccc(O)cc1` (configuration not stated) [HYDROXYAMPHETAMINE HYDROBROMIDE], for which the IC50 cell viability was greater than 45.8 µM (ICRF193 0 nM) and greater than 45.8 µM (ICRF193 200 nM).

As to `CN1C(=O)[C@]23C[C@H]4C(C)(C)[C@]5(CNc6c5ccc5c6OC=CC(C)(C)O5)C[C@@]41CN2CC[C@@]3(C)O` [Derquantel], the IC50 cell viability (ICRF193 0 nM) is greater than 45.8 µM and the IC50 cell viability (ICRF193 200 nM) is greater than 45.8 µM.

Take `Cc1ccsc1C(=CCCN1CCC[C@@H](C(=O)O)C1)c1sccc1C` [Tiagabine hydrochloride]: the IC50 cell viability runs as follows: (ICRF193 0 nM) greater than 45.8 µM; (ICRF193 200 nM) greater than 45.8 µM.

On to `CC(C)(C)CC(=O)OCC(=O)[C@@]12OC(C)(C)O[C@@H]1C[C@H]1[C@@H]3CCC4=CC(=O)C=C[C@]4(C)[C@@]3(F)[C@@H](O)C[C@@]12C` [Triamcinolone hexacetonide], for which the IC50 cell viability reads like this: (ICRF193 0 nM) greater than 45.8 µM; (ICRF193 200 nM) greater than 45.8 µM.

Consider `NC(=O)c1ncn([C@@H]2O[C@H](CO)[C@@H](O)[C@H]2O)n1` [Ribavirin], for which the IC50 cell viability reads like this: (ICRF193 0 nM) greater than 45.8 µM; (ICRF193 200 nM) greater than 45.8 µM.

For the compound `NC(=O)OCC(COC(N)=O)c1ccccc1` [Felbamate], the IC50 cell viability was greater than 45.8 µM (ICRF193 0 nM) and greater than 45.8 µM (ICRF193 200 nM).

As for `C=C1[C@H](CO)[C@@H](O)C[C@@H]1n1cnc2c(=O)[nH]c(N)nc21` [Entecavir (monohydrate)], the IC50 cell viability was greater than 45.8 µM (ICRF193 0 nM) and greater than 45.8 µM (ICRF193 200 nM).

With `Cc1ccc(Nc2c(F)cccc2Cl)c(CC(=O)O)c1` [Lumiracoxib], the IC50 cell viability runs as follows: (ICRF193 0 nM) greater than 45.8 µM; (ICRF193 200 nM) greater than 45.8 µM.

With `Cc1oc(=O)oc1CN1CCN(c2cc3c(cc2F)c(=O)c(C(=O)O)c2n3C(C)S2)CC1` (configuration not stated) [Prulifloxacin], the IC50 cell viability by setting is: (ICRF193 0 nM) greater than 45.8 µM; (ICRF193 200 nM) greater than 45.8 µM.

For the compound `CC(C)[C@H](N)C(=O)O` [L-Valine], the IC50 cell viability is greater than 45.8 µM (ICRF193 0 nM) and greater than 45.8 µM (ICRF193 200 nM).

Take `C1CCN2C[C@@H]3C[C@@H](CN4CCCC[C@@H]34)[C@H]2C1` [Sparteine]: the IC50 cell viability by setting is: (ICRF193 0 nM) greater than 45.8 µM; (ICRF193 200 nM) greater than 45.8 µM.

Compound `CCOc1ccccc1OC(c1ccccc1)C1CNCCO1` (configuration not stated) [Reboxetine mesylate] registered an IC50 cell viability (ICRF193 0 nM) greater than 45.8 µM and an IC50 cell viability (ICRF193 200 nM) greater than 45.8 µM.

For `NC(=O)c1ccccc1O` [Salicylamide], the IC50 cell viability by setting is: (ICRF193 0 nM) greater than 45.8 µM; (ICRF193 200 nM) greater than 45.8 µM.

With `C/C(=N\O)C(C)NCC(C)(C)CNC(C)/C(C)=N/O` (configuration not stated) [Exametazime], the IC50 cell viability reads like this: (ICRF193 0 nM) greater than 45.8 µM; (ICRF193 200 nM) greater than 45.8 µM.

Regarding `CC(Cc1ccc(O)cc1)NCC(O)c1cc(O)cc(O)c1` (configuration not stated) [Fenoterol hydrobromide], the IC50 cell viability was greater than 45.8 µM (ICRF193 0 nM) and greater than 45.8 µM (ICRF193 200 nM).

Consider `NC(=O)NO` [Hydroxyurea], for which the IC50 cell viability was greater than 45.8 µM (ICRF193 0 nM) and greater than 45.8 µM (ICRF193 200 nM).

On to `COc1cc(CNC(=O)CCCC/C=C/C(C)C)ccc1O` [(E)-Capsaicin], for which the IC50 cell viability is greater than 45.8 µM (ICRF193 0 nM) and greater than 45.8 µM (ICRF193 200 nM).

For `C=CCOc1ccc(CC(=O)O)cc1Cl` [Alclofenac], the IC50 cell viability reads like this: (ICRF193 0 nM) greater than 45.8 µM; (ICRF193 200 nM) greater than 45.8 µM.

For the compound `CN1C(=O)CC(C)(c2ccccc2)C1=O` (configuration not stated) [Methsuximide], the IC50 cell viability runs as follows: (ICRF193 0 nM) greater than 45.8 µM; (ICRF193 200 nM) greater than 45.8 µM.

Consider `CC(C(=O)O)c1ccc2c(c1)[nH]c1ccc(Cl)cc12` (configuration not stated) [Carprofen], for which the IC50 cell viability is greater than 45.8 µM (ICRF193 0 nM) and greater than 45.8 µM (ICRF193 200 nM).

Compound `CCCCNc1ccc(C(=O)OCCN(C)C)cc1` [Tetracaine hydrochloride] had an IC50 cell viability (ICRF193 0 nM) greater than 45.8 µM and an IC50 cell viability (ICRF193 200 nM) greater than 45.8 µM.
